No end group written: not given here.
Experiments:
Format in all cases: cell-based
[1] = system: Saccharomyces cerevisiae (ATCC 44774); details: ATCC 44774, 12 h
From the text: (§1) The microorganisms used in the present invention include Gram-positive bacteria such as Bacillus subtilis (ATCC 62037), Staphylococcus aureus (ATCC 15752) and Streptococcus mutans (ATCC 25175), Gram-negative bacteria such as Escherichia coli (ATCC 27325), Salmonella enteritidis (ATCC 15277) and Pseudomonas putida (ATCC 17426) and fungi such as Candida albicans (ATCC 10231), Saccharomyces cerevisiae (ATCC 44774) and Cryptococcus neoformans (ATCC 34881), obtained from American Type Culture Collection (ATCC).
(§2) The antimicrobial activity of the peptides prepared in Example 1 was determined against microorganisms by 96-well microdilution minimal inhibitory concentration assay. After overnight culturing the bacteria and fungi in trypticase soy broth (TSB) and Saboraud (SAB) at 37° C. and 30° C., respectively, they were inoculated in new media and cultured for 2 hours to exponential growth phase. After diluting the microorganisms to 10^5 per 1 ml, 190 μl was inoculated in each 96-well plate, and 10 μl of serially diluted peptides were added in each well.

[2] = system: Cryptococcus neoformans (ATCC 34881); details: ATCC 34881, 12 h
From the text: as §1, §2

[3] = system: Escherichia coli (ATCC 27325); details: ATCC 27325, 12 h
From the text: as §1, §2

[4] = system: Bacillus subtilis (ATCC 62037); details: ATCC 62037, 12 h
From the text: as §1, §2

[5] = system: Candida albicans (ATCC 10231); details: ATCC 10231, 12 h
From the text: as §1, §2

[6] = system: Pseudomonas putida (ATCC 17426); details: ATCC 17426, 12 h
From the text: as §1, §2

[7] = system: Streptococcus mutans (ATCC 25175); details: ATCC 25175, 12 h
From the text: as §1, §2

[8] = system: Staphylococcus aureus (ATCC 15752); details: ATCC 15752, 12 h
From the text: as §1, §2

[9] = system: Salmonella enteritidis (ATCC 15277); details: ATCC 15277, 12 h
From the text: as §1, §2

| Substance | Minimum Inhibitory Concentration [1] [µg/mL] | Minimum Inhibitory Concentration [2] [µg/mL] | Minimum Inhibitory Concentration [3] [µg/mL] | Minimum Inhibitory Concentration [4] [µg/mL] | Minimum Inhibitory Concentration [5] [µg/mL] | Minimum Inhibitory Concentration [6] [µg/mL] | Minimum Inhibitory Concentration [7] [µg/mL] | Minimum Inhibitory Concentration [8] [µg/mL] | Minimum Inhibitory Concentration [9] [µg/mL] |
| --- | --- | --- | --- | --- | --- | --- | --- | --- | --- |
| KVVKKVVKKVVKNWPIGKVVK [compound 53] | 1 | 1 | 1 | 1 | 2 | 1 | 1 | 1 | 1 |
| KLVKKLVKKLVKQWPIGKLVK [compound 42] | 1 | 1 | 1 | 1 | 1 | 1 | 2 | 1 | 1 |
| RLLRRLLRRLLRQWPIGRLLR [compound 37] | 2 | 2 | 1 | 1 | 2 | 1 | 1 | 1 | 2 |
| KVLRKVLRKVLRQWPIGKVLR-NH2 [compound 71] | 2 | 1 | 1 | 1 | 1 | 1 | 1 | 1 | 1 |
| KLLKQWPIGKLLKKLLKKLLK [compound 4] | 2 | 1 | 1 | 2 | 1 | 1 | 1 | 1 | 1 |
| KVLKNWPIGKVLKKVLKKVLK [compound 23] | 1 | 1 | 1 | 1 | 1 | 1 | 2 | 1 | 2 |
| RLLKRLLKRLLKQWPIGRLLK [compound 45] | 2 | 2 | 1 | 1 | 2 | 1 | 1 | 1 | 2 |
| KLLKKLLKKLLKNWPIGKLLK [compound 55] | 2 | 1 | 2 | 1 | 1 | 1 | 2 | 1 | 1 |
| KLVRNFPVGKLVRKLVRKLVR [compound 34] | 1 | 1 | 1 | 1 | 1 | 1 | 2 | 1 | 1 |
| KLLRNWPIGKLLRKLLRKLLR [compound 29] | 2 | 1 | 1 | 1 | 1 | 1 | 2 | 1 | 1 |
| KLVKQWPIGKLVKKLVKKLVK [compound 8] | 2 | 1 | 1 | 1 | 2 | 1 | 2 | 1 | 1 |
| RVVRQWPIGRVVRRVVRRVVR [compound 1] | 2 | 1 | 1 | 2 | 2 | 1 | 2 | 1 | 1 |
| KLVRQWPIGKLVRKLVRKLVR [compound 16] | 1 | 1 | 1 | 2 | 1 | 1 | 2 | 1 | 1 |
| KLLRKLLRKLLRNWPIGKLLR [compound 63] | 2 | 1 | 1 | 1 | 1 | 1 | 2 | 1 | 2 |
| RVVKNWPIGRVVKRVVKRVVK [compound 26] | 2 | 1 | 2 | 1 | 2 | 1 | 1 | 1 | 1 |
| KLLKKLLKKLLKQWPIGKLLK [compound 38] | 2 | 1 | 2 | 1 | 2 | 1 | 2 | 1 | 1 |
| RLVKRLVKRLVKNWPIGRLVK [compound 66] | 2 | 1 | 2 | 1 | 1 | 1 | 2 | 1 | 1 |
| RLVRRLVRRLVRNWPIGRLVR [compound 58] | 2 | 1 | 1 | 1 | 2 | 1 | 1 | 1 | 1 |
| RLLRRLLRRLLRNWPIGRLLR [compound 54] | 2 | 1 | 2 | 1 | 1 | 1 | 2 | 1 | 1 |
| KLVRKLVRKLVRQFPVGKLVR [compound 51] | 2 | 1 | 1 | 1 | 1 | 1 | 1 | 1 | 2 |

Source: patent US7348402B2, “Antimicrobial peptide, its analogs and antimicrobial composition comprising them” (priority 2002, dated 2008)
